Experimental data published in publication PMC3477287 (ACS chemical biology, 2012).

Molecular target: MbtA (Mycobacterium tuberculosis, UniProt P71716)
Assay: […]
Format: biochemical

Sequence of MbtA (P71716 whole entry): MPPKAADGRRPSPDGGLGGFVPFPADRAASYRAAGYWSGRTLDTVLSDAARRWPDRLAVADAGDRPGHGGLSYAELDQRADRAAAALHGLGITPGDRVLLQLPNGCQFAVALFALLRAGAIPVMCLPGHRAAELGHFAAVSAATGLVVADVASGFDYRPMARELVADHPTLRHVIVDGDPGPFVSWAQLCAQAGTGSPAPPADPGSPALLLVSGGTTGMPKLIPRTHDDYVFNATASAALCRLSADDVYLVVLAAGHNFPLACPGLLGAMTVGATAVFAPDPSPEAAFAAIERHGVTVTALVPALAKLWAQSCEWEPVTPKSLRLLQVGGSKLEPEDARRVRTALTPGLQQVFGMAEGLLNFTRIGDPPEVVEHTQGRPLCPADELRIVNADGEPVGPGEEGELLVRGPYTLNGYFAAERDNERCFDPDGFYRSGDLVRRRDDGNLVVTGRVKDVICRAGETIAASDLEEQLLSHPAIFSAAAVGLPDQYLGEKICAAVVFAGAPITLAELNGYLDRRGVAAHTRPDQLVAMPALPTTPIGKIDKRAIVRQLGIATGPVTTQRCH

Substance: Sal-AMS ABP [compound 6]
- Ki: 0.94 nM
